pIC50: −log10 of the molar value.
Key:
[1] = target: Serine-protein kinase ATM (Homo sapiens, UniProt Q13315); assay: Cellular Assay: Assay a) HT29 cells (ECACC #85061109) were seeded into 384 well assay plates (Costar #3712) at a density of 3500 cells/well in 40 μl EMEM medium containing 1% L glutamine and 10% FBS and allowed to adhere overnight. The following morning compounds of Formula (I) in 100% DMSO were added to assay plates by acoustic dispensing. After 1 h incubation at 37° C. and 5% CO2 plates (up to …; format: cell-based, HT-29
[2] = target: Serine/threonine-protein kinase ATR (Homo sapiens, UniProt Q13535); assay: Cellular Assay: Assay b) HT29 cells (ECACC #85061109) were seeded into 384 well assay plates (Costar #3712) at a density of 6000 cells/well in 40 μl EMEM medium containing 1% L glutamine and 10% FBS and allowed to adhere overnight. The following morning compound of Formula (I) in 100% DMSO was added to assay plates by acoustic dispensing. After 1 h incubation at 37° C. and 5% CO2, 40 nl of 3 mM 4NQO in 100% DMSO was added to all wells by acoustic dispensing, except minimum control wells which were left untreated with 4NQO to generate a null response control. Plates were returned to the incubator for a further 1 h. Then cells were fixed by adding 20 μl of 3.7% formaldehyde in PBS solution and incubating for 20 mins at r.t. Then 20 μl of 0.1% Triton X100 in PBS was added and incubated for 10 minutes at r.t., to permeabalise cells. Then the plates were washed once with 50 μl/well PBS, using a Biotek EL405 plate washer. Phospho-Chk1 Ser 345 antibody (Cell Signalling Technology #2348) was diluted 150 fold in PBS containing 0.05% polysorbate/Tween and 15 μl was added to each well and incubated over night at r.t. The next morning plates were washed three times with 50 μl/well PBS, using a Biotek EL405 plate washer, and then 20 μl of secondary Ab solution, containing 500 fold diluted Alexa Fluor 488 Goat anti-rabbit IgG (Molecular Probes #A-11008) and 0.002 mg/ml Hoeschst dye (Molecular Probes #H-3570), in PBST, was added. After 2 h incubation at r.t., the plates were washed three times with 50 μl/well PBS, using a Biotek EL405 plate washer, and plates were then sealed with black plate seals until read. Plates were read using an ArrayScan VTI instrument, using an XF53 filter with 10× objective. A two laser set up was used to analyse nuclear staining with Hoeschst (405 nm) and secondary antibody staining of pChk1 (488 nm).; format: cell-based, HT-29
Serine/threonine-protein kinase ATR, sequence (Q13535 whole entry): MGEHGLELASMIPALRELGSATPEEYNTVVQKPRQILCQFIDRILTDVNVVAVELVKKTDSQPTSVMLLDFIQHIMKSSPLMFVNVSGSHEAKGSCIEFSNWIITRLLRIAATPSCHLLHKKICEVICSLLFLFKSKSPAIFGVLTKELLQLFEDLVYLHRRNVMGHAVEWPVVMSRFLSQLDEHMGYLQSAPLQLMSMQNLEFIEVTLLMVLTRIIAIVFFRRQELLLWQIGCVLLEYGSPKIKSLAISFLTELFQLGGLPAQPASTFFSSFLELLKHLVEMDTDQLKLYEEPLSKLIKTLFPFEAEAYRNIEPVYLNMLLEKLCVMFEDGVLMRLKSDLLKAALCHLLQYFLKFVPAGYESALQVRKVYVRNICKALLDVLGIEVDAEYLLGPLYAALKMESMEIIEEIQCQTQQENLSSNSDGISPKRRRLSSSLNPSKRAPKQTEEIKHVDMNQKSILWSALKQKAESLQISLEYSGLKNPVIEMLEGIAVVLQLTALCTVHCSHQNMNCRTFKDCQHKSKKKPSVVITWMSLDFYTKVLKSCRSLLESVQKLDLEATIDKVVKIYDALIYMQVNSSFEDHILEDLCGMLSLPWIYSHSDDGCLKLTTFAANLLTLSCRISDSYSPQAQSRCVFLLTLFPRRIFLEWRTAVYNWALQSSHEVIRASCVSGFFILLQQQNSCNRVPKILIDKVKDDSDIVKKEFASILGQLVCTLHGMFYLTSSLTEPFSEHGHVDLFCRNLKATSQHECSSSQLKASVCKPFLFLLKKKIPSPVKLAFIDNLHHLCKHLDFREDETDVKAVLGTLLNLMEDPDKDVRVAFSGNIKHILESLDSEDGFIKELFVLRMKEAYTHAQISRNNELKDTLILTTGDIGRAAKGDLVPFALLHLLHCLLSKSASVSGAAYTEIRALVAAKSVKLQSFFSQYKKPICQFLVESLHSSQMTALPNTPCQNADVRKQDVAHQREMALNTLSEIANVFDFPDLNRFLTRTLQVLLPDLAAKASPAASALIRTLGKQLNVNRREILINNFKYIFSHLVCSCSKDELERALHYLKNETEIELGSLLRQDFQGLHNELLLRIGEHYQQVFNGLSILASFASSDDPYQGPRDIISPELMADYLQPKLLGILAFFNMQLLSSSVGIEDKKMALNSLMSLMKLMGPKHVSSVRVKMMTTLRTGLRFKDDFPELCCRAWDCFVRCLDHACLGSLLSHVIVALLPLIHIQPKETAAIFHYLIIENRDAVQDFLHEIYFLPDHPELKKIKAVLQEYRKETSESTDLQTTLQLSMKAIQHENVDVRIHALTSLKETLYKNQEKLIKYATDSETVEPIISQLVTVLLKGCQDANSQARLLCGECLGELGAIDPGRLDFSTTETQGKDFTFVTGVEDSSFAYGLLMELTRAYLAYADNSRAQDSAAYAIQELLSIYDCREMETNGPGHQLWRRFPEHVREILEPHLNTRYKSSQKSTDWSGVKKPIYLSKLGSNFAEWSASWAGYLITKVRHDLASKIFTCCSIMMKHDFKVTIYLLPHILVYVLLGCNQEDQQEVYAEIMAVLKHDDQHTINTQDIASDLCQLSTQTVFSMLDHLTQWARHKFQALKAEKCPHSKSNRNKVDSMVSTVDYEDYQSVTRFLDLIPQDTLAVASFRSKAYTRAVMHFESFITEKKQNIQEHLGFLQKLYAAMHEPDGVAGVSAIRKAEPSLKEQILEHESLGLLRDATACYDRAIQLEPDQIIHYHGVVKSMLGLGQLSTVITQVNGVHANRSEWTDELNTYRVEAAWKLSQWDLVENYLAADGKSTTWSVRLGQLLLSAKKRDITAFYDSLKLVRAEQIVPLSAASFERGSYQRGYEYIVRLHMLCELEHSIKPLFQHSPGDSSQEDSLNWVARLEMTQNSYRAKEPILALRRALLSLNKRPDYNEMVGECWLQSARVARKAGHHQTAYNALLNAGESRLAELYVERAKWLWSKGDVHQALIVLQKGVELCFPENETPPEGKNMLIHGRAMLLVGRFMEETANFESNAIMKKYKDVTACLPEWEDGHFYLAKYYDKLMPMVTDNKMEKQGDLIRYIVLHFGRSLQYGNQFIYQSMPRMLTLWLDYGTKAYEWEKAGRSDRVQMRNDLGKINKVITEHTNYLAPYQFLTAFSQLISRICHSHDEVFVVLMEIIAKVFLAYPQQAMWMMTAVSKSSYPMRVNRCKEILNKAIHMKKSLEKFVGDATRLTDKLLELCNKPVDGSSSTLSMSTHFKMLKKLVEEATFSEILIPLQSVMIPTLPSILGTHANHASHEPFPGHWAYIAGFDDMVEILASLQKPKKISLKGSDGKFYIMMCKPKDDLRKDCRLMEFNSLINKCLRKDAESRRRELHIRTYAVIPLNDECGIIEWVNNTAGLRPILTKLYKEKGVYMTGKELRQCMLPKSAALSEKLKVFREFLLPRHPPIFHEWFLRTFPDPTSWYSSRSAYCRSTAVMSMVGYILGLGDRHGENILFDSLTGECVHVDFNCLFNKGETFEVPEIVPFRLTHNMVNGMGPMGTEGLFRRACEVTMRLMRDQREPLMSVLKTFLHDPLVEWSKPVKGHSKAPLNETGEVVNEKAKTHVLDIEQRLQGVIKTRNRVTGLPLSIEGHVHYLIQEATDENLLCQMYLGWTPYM

CN(C)CCCOc1ccc(-c2ccc3ncc4c(c3c2)n(C2COC2)c(=O)n4C)cn1
pIC50 [1]: 8.84
pIC50 [2]: < 4.52

CN(C)CCCOc1ccc(-c2cc3c(cc2F)ncc2c3n([C@H]3CCCOC3)c(=O)n2C)cn1
pIC50 [1]: 8.94
pIC50 [2]: < 4.53

CN(C)CCCOc1ccc(-c2cc3c(cc2F)ncc2c3n([C@@H]3CCCOC3)c(=O)n2C)cn1
pIC50 [1]: 9.00
pIC50 [2]: < 4.52

CN(C)CCCOc1ccc(-c2ccc3ncc4c(c3c2)n([C@H]2C[C@@H](O)C2)c(=O)n4C)cn1
pIC50 [1]: 9.62
pIC50 [2]: < 4.52

Reference: ChEMBL document CHEMBL3886912, “Imidazo[4,5-c]quinolin-2-one compounds and their use in treating Cancer” (2016)
